In patent EP0619313A1, “LITHIUM SALT OF 2-O-ALK[…]” (TSUMURA & CO., priority 1992, dated 1994):

Columns and labels:
[1] = tested on: rabbit defibrinated blood; experiment: Hemolysis test with rabbit defibrinated blood; type: cell-based; details: not more than 1 µg/ml in physiological saline; 37°C for 1 hour; macroscopic observation of the supernatant
Method: A physiological saline solution containing 2-O-octadecylascorbic acid lithium obtained in Example 1 below was warmed to 37°C, put in a Spitz roll, provided with rabbit defibrinated blood (Note)(0.1 ml) previously warmed to 37°C, shaken for mixing gently and warmed at 37°C for 1 hour. Then, this liquid was subjected to centrifugation. Macroscopic observation was made as to whether the supernatant had hemolysis.
Blood (about 20 ml) was drawn from rabbits, put in a flask containing about twenty glass beads of diameter of 8 mm, shaken for mixing gently for about 5 minutes and filtered through gauze. This preparation was carried out before use.

[2] = Toxicity after oral or intravenous administration, mice; type: in vivo; details: mouse, in vivo, read-out: LD₅₀
Method: (§1) The test compound was administered orally or intravenously to Jcl:ICR mice and Jcl:Wistar rats (two mice or rats (male and female) per group). 2-O-octadecylascorbic acid lithium obtained in Example 1 as the test compound was suspended in 0.5% methyl cellulose in the case of oral administration and dissolved in physiological saline in the case of intravenous administration.

Jcl:ICR mice = experiment: as above; type: in vivo
Method: as §1

[3] = Toxicity after oral or intravenous administration, rats; type: in vivo; details: rat, in vivo, read-out: LD₅₀
Method: as §1

Jcl:Wistar rats = experiment: as above; type: in vivo
Method: as §1

[4] = tested on: lipid peroxidation enzyme; experiment: Inhibitory activity against lipid peroxidation enzyme (rat liver microsome, carbon tetrachloride, thiobarbituric acid); type: biochemical; details: 300 µM; carbon tetrachloride 20 mM; 37°C for 12 minutes
Method: Rat liver microsome (2 mg), which is a NADPH generating system, the test compound (2-O-octadecylascorbic acid lithium obtained Example 1)(300 µM) and carbon tetrachloride (20 mM) were reacted at 37°C for 12 minutes. A mixed solution of thiobarbituric acid and trichloroacetic acid was added to the solution. Absorbance was measured at 535 nm.

[5] = biological target: T1, Phospholipase A₂ derived from pig pancreas (Sus scrofa, UniProt P00592); experiment: Inhibitory activity against phospholipase A₂; type: biochemical; details: pH 9, read-out: enzymatic activity of the phospholipase inhibited
T1 construct: Phospholipase A₂ derived from pig pancreas; from tissue; host or cells: pig pancreas
Method: Phospholipase A₂ derived from pig pancreas was reacted for 10 minutes in 0.1M glycine-NaOH buffer (pH 9) containing a test compound (2-O-octadecylascorbic acid lithium obtained in Example 1)(300 µM) and labeled phosphatidylcholine. Thereafter, Ca⁺⁺ (2.5 mM) was added and the reaction was continued for additional 5 minutes. The reaction was stopped by adding 0.2M EDTA solution to the reaction mixture. The mixture was extracted with acidic […]. Scintillation of the […] layer was measured.

[6] = biological target: T2, GST-cdc25Hu2 fused protein (Homo sapiens, UniProt P30305); experiment: GST-cdc25Hu2 (protein phosphatase) inhibitory activity; type: biochemical; details: 37°C for 60 minutes, read-out: cdc25 activity inhibited
T2 sequence (P30305 1-580): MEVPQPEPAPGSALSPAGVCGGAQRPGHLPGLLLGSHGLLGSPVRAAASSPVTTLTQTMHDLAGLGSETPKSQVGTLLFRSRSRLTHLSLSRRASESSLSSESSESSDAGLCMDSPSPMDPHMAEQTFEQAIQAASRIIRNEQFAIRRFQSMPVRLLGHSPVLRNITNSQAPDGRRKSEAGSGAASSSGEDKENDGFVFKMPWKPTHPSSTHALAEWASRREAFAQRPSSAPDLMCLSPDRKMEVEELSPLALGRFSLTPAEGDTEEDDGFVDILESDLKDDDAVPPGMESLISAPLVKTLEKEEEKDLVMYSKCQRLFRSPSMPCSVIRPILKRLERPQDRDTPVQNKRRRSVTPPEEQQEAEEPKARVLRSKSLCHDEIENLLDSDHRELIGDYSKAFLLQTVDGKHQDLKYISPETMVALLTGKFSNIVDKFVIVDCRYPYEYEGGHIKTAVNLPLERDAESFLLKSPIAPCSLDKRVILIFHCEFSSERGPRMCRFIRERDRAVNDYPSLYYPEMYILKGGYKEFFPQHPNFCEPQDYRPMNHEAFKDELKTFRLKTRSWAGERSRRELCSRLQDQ
Method: A test compound (2-O-octadecylascorbic acid lithium obtained in Example 1)(80 µM) was added to a reaction mixture containing GST-cdc25Hu2 fused protein (60 µg/ml), p-nitrophenylphosphate (manufactured by Wako Pure Chemical Industries, Ltd.)(10 mM), bovine serum albumin (manufactured by Sigma, U.S.A.)(100 µg/ml), DDT (dithiothreitol) (manufactured by Wako Pure Chemical Industries, Ltd.)(10 mM) and HEPES (2-hydroxyethylpiperazine-N'-2-ethane sulfate)(25 mM, pH 8.0). The mixture was subjected to reaction at 37°C for 60 minutes. Then, absorbance at 405 nm was measured, and the inhibitory activity was evaluated based on the decrease of the absorbance.

[7] = tested on: myocardial infarction focus; experiment: Inhibition of development of myocardial infarction focus after coronary obstruction-reperfusion in rats; type: in vivo, Male Wistar-rats; details: 1 mg/kg intravenous
Method: Male Wistar-rats (11 to 12 weeks old) were used and anethesized with pentobarbital-Na, and medianus thoracotomy was carried out under artificial respiration. After incising the pericardium membrane, the heart was exposed. The base of the left coronary artery together with cardiac muscle was threaded with a sutural needle and thread (marketed by Lederle (Japan), Ltd., 7-0 silk), which were passed through a polyethylene tube, and the thread was pulled. Thus, coronary artery was obstructed. One hour later, the thread was loosed to make blood to flow again. Thirty to sixty minutes after reperfusion, the thorax was closed and the rat was kept under arousal.
After 24 hours, the rats were anesthetized again, and the heart was removed quickly and soaked in ice-cooled physiological saline. The coronary artery was obstructed again to know a dangerous region. Evans' Blue (1%) was perfused through a polyethylene tube inserted into the aorta retrogradely, and normal region was separated from the dangerous region. Thereafter, the left ventricle was divided into 6 parts parallel to the vertical axis and dyed with triphenyl tetrazolium chloride (TTC)(1%) at 37°C for 10 minutes except necrotic cells. The infarction focus was weighed. The test drug (2-O-octadecylascorbic acid obtained in Example 1) was dissolved in physiological saline, and administered intravenously 30 minutes after the coronary obstruction.

Water-solubility = details: at 28°C
[8] = intravenous administration, dissolved in physiological saline
[9] = oral administration, suspended in 0.5% methyl cellulose

T1 sequence (P00592 23-146): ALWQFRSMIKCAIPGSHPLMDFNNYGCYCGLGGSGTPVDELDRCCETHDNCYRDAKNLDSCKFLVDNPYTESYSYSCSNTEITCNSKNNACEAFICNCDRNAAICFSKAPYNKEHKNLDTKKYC

For CCCCCCCCCCCCCCCCCCOC1=C(O)[C@@H]([C@@H](O)CO)OC1=O.[Li] [2-O-octadecylascorbic acid lithium], the hemolysis [1] was “not observed”, the LD50 [2, 8] was 25 to 50 mg/kg and the LD50 [2, 9] was ≥ 2000 mg/kg. The “Abnormal findings in the autopsy of the survivors” value (Jcl:ICR mice) was “not observed”, the “autopsy of the dead animals” value (Jcl:ICR mice; intravenous administration) was “Pulmonary congestion was observed” and the LD50 [3, 8] was 25 to 50 mg/kg. The LD50 [3, 9] was ≥ 2000 mg/kg, the “Abnormal findings in the autopsy of the survivors” value (Jcl:Wistar rats) was “not observed” and the “autopsy of the dead animals” value (Jcl:Wistar rats; intravenous administration) was “Pulmonary congestion was observed”. The “inhibitory ratio of the enzymatic activity” value [4] was 75%, the inhibition at 300 µM [5] was 59% and the inhibition at 80 µM [6] was 93.6%. For the same compound, the “infarction focus per the dangerous region (IS/AR)” value ([7]; 30 minutes after the coronary obstruction, N=7, control 60.0±1.8%) was 40.5±4.6%, the “inhibition in comparison with the control group” value ([7]; P<0.001) was 32.7% and the “dangerous region per left ventricle (AR/LV)” value ([7]; compared with the physiological saline group) was “no significant difference”. For the same compound, the water-solubility (Water-solubility) was 1 g/83 ml (water).
